# Columns and labels:
# [1] = test system: A. fumigatus, S. apiospermum, F. solani, and Rhizopus spp.; experiment: Cyclophosphamide and cortisone acetate immunosuppressed mice with IMIs; assay type: in vivo
# [2] = in vivo
# [3] = Tissue distribution; assay type: in vivo; details: IV and PO formulations
# Description: Compound 1 has a novel mechanism of action with broad spectrum activity against Candida spp. (yeast) and Aspergillus spp. (mold), including activity against polyene and azole-resistant strains of Aspergillus spp. […] Compound 1 has the potential to be used as a first-line agent for the treatment of IMIs through a unique mechanism of action. Thus, compound 1 has potential to fill an unmet need for patients with limited or no antifungal treatment options due to documented/anticipated resistance, contraindication, intolerance, or lack of clinical response to standard of care (SOC) antifungal therapy.
# [4] = test system: Aspergillus fumigatus, Scedosporium prolificans, and Fusarium solani; experiment: 5-fluorouracil immunosuppressed mice with IMIs; assay type: in vivo
# [5] = Phase 1 studies in healthy volunteers, safety and tolerability; assay type: in vivo, human
# Description: In Phase 1 clinical studies of compound 1, the safety, tolerability, and PK of single and multiple ascending doses administered intravenously (IV) and orally (PO) have been studied. To date, a total of 197 healthy volunteers and 21 patients with acute myeloid leukemia (AML) have received compound 1 across 5 Phase 1 studies. The duration of the multiple-dose regimens in these studies was 7, 14, and 42 days (6 weeks).
# The majority of the TEAEs were mild, transitory, and resolved without intervention. […] This IV dose regimen is identical to the IV dose regimen that will be used in this study. […] This PO-dose regimen is higher than the 700 mg PO dose that will be used in this study.
# [6] = test system: Candida spp.; experiment: Open-label study in non-neutropenic patients with candidemia; assay type: in vivo, human
# Experimental: Suspicion of antifungal-resistant candidemia is sufficient and subsequent documented resistance is not required for enrollment. The Study Drug Treatment Period will be up to a maximum of 14 days (inclusive of the loading dose [Study Day 1]). […] There will be a Follow-up Period of 4 weeks (+4 days) after EOT. The total duration of participation in the study is up to approximately 7.5 weeks (inclusive of the Screening Period [≤96 hours prior to Baseline]).
# Patients with a yeast identified in a blood culture or a positive rapid diagnostic method are eligible to be consented and screened for the study. Patients must have at least 1 positive blood test for Candida spp. (or yeast suspected to be Candida) for a diagnosis of candidemia to be considered for enrollment into the study. Patients with a positive blood culture showing yeast suspected to be Candida must have identification of Candida spp. from positive blood culture confirmed prior to dosing. Screening and Baseline procedures and the start of Compound 1 study drug will be initiated within 96 hours from the time that the SOC blood sample for the Candida spp. positive culture or rapid diagnostic test was drawn. Patients with 2 days (>48 hours) equivalent of prior systemic antifungal treatment at approved doses to treat the current episode of candidemia within 96 hours before first dose will be excluded.
# On Study Day 1 (or over the first 24 hours if started in the evening), a 1000 mg Compound 1 loading dose will be administered over 3 hours by IV infusion BID. On Study Days 2 and 3 of study drug, a 600 mg Compound 1 maintenance dose will be administered over 3 hours by IV infusion QD. On Study Day 4 and onward, the Compound 1 maintenance dose will be administered as either 600 mg Compound 1 IV infusion QD over 3 hours or 700 mg PO QD. […] Study drug will be administered for a maximum of 14 days. […] Candida spp. bloodstream infection will be monitored by daily blood culture during Study Drug Treatment until 2 consecutive blood cultures are negative, and at EOST, EOT, and 2 and 4 weeks after EOT, or Early Termination. Simultaneously drawn blood samples will be collected for Candida testing by T2 magnetic resonance (T2MR) assay at Baseline, during Study Drug Treatment, and EOST, or Early Termination. Other cultures, histopathology, and imaging tests to assess the site(s) and extent of candidemia infection at other sites will be conducted as clinically indicated, and the results should be recorded in the electronic Case Report Form (eCRF). The management of intravascular catheters, intravascular devices, and, if applicable, any drains will be recorded, including any associated microbiology results. Patients will be monitored for safety throughout the duration of the study.
# On Study Day 1 (or over the first 24 hours if started in the evening), a 1000 mg Compound 1 loading dose will be administered over 3 hours by IV infusion BID. On Study Days 2 and 3 of study drug, a 600 mg Compound 1 maintenance dose will be administered over 3 hours by IV infusion QD. On Study Day 4 and onward, the Compound 1 maintenance dose will be administered as either 600 mg Compound 1 IV infusion QD over 3 hours or 700 mg PO QD. […] Study drug will be administered for a maximum of 14 days (inclusive of the loading dose [Study Day 1]). Tablets are to be administered at the same time each day, whole, and taken by mouth with water within 30 minutes of being removed from the refrigerator. No splitting or crushing of tablets is allowed.
# If applicable, an assessment of efficacy will also be made at the end of this antifungal treatment at EOT.
# Eradication is defined as a negative blood culture(s) for Candida spp. in the absence of additional antifungal therapy (except for protocol-allowed step-down treatment [e.g., fluconazole]) through EOT
# [7] = test system: Candida spp.; experiment: In vitro activity against Candida spp. isolates from the study; assay type: cell-based; details: including isolates resistant to other antifungal agents
# Description: A total of 21 patients were enrolled in the study: 20 were included in the mITT. Median duration of Compound 1 therapy was 11 days (range 5 to 14). All patients received IV Compound 1, 48% (10/21) received PO Compound 1.
# [8] = biological target: T1, phosphatidylinositol glycan anchor biosynthesis class W (PIGW) protein (Homo sapiens, UniProt Q7Z7B1); experiment: Inhibition of PIGW, closest mammalian ortholog of GWT1; assay type: biochemical; details: closest mammalian ortholog of fungal GWT1
# T1 sequence (Q7Z7B1 1-504): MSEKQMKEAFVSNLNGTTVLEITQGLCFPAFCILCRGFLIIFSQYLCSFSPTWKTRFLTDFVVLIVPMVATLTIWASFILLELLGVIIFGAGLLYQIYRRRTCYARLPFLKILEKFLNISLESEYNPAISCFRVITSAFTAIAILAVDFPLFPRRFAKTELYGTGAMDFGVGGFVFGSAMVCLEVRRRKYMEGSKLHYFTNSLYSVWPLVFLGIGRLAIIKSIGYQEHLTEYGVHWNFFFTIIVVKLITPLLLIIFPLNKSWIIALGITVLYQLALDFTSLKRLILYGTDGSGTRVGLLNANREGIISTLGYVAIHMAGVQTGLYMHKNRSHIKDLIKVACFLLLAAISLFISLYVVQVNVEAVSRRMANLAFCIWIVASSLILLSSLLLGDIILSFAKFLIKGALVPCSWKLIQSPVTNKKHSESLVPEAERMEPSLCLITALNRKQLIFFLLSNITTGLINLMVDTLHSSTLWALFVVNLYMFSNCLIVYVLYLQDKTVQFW
# Description: (§1) Compound 1A inhibits the fungal glycosylphosphatidylinositol (GPI)-anchored wall transfer protein 1 (GWT1) enzyme, a highly conserved inositol acylase that catalyzes an early step in the GPI-anchored biosynthesis pathway. This inhibition has pleiotropic effects on the fungal cell due to inhibition of cell wall mannoprotein localization, which comprises cell wall integrity, biofilm formation, germ tube formation, and fungal growth.
# [9] = test system: Candida spp., Cryptococcus spp., Aspergillus spp., Scedosporium spp., Fusarium spp., and some Mucorales fungi; experiment: In vitro antifungal activity; assay type: cell-based; details: including azole- and echinocandin-resistant strains
# [10] = test system: clinical isolates of rare mold infections and rare yeast infections; experiment: Antifungal activity against clinical isolates of rare mold and rare yeast infections; assay type: cell-based; details: broad range of clinical isolates of rare mold and rare yeast infections
# Description: These rare mold and rare yeast species generally pose no threat to healthy subjects, but can lead to invasive mold infections in immunocompromised individuals.
# [11] = biological target: fungal glycosylphosphatidylinositol (GPI)-anchored wall transfer protein 1 (GWT1) enzyme (Saccharomyces cerevisiae, UniProt P47026); experiment: Inhibition of fungal GWT1 enzyme; assay type: biochemical
# Sequence of fungal glycosylphosphatidylinositol (GPI)-anchored wall transfer protein 1 (GWT1) enzyme (P47026 whole entry): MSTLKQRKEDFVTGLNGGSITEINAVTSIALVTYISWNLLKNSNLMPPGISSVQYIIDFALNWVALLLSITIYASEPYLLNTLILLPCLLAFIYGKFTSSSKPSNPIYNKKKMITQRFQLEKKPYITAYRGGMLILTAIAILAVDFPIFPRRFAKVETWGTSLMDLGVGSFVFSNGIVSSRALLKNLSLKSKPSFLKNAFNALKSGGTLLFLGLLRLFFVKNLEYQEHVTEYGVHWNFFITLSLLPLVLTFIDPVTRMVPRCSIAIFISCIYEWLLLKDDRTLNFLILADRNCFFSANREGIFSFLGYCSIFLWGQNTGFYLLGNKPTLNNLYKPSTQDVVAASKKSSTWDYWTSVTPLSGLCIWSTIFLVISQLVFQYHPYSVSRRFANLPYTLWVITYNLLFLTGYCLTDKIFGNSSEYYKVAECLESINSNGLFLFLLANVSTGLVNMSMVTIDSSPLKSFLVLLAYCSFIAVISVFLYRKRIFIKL
# Description: as §1
# [12] = patients with renal insufficiency
# [13] = patients with renal insufficiency (n=14)
smiles,measurement,setting,value
Nc1c(-c2cc(Cc3ccc(COc4ccccn4)cc3)no2)ccc[n+]1COP(=O)([O-])O [Compound 1],fungal burden,[1],reduced fungal burden
same,survival rates,[1],statistically significantly improved survival rates
same,conversion of prodrug to compound 1A,[2],rapidly converted in vivo
same,tissue distribution,[3],"wide-tissue distribution, including the eye and central nervous system"
same,pulmonary fungal colony counts,[4],reduced pulmonary fungal colony counts
same,survival rates,[4],statistically significantly improved survival rates
same,DLTs,"[5]; 2 Phase 1 studies, healthy volunteers",No DLTs were observed
same,safety and tolerability,"[5]; 2 Phase 1 studies, healthy volunteers, IV and PO formulations",safe and well tolerated
same,safety and tolerability,"[5]; FIH Phase 1: 1000 mg IV 2-hour infusion BID Day 1, then 600 mg IV 1-hour infusion QD Days 2 through 7",safe and well tolerated
same,safety and tolerability,[5]; second Phase 1 study: 1000 mg PO QD Days 1 through 14,safe and well tolerated
same,DRC-assessed success rate at EOST,[6]; mITT (16/20),80%
same,Survival at day 30,[6]; mITT (17/20),85%
same,tolerability,"[6]; patients with candidemia, up to 14 days",well-tolerated with no treatment-related serious adverse events or discontinuations
same,effect of renal impairment on exposure,[6]; [12],did not increase exposure
same,treatment-related adverse events,[6]; [12],no treatment-related adverse events
same,Treatment success rate at EOST,[6]; patients with renal insufficiency (12/14),86%
same,worsening of renal function at EOST,[6]; [13],None
same,worsening of renal function during the follow-up period,[6]; [13],4 patients
same,in vitro activity against Candida spp. from the study,[7],potent in vitro activity
Nc1ncccc1-c1cc(Cc2ccc(COc3ccccn3)cc2)no1 [Compound 1A],inhibition of PIGW protein,[8],does not inhibit
same,in vitro antifungal activity,[9],broad in vitro antifungal activity
same,pulmonary fungal colony counts,[4],reduced pulmonary fungal colony counts
same,survival rates,[4],statistically significantly improved survival rates
same,antifungal activity against clinical isolates,[10],demonstrated antifungal activity
same,inhibition of fungal GWT1 enzyme,[11],inhibits

# From patent US20230233586A1, “COMPOUNDS AND METHODS FOR TREATING FUNGAL INFECTIONS” (Amplyx Pharmaceuticals, Inc., priority 2020, published 2023)
